Several values for one entry are separate records, joined by “and”; a condition that tells them apart may be missing. Equal values may be shown once.

A short description of the data set: Henry solubility constant Hcp at 298.15 K (mol/(m3 Pa)). The note with it: reference: Lau et al. (2006).
As for `Brc1ccc(Oc2ccccc2)cc1` [4-bromodiphenyl ether], the “Henry solubility constant Hcp” value is 0.05 and 0.043. In the case of `Brc1ccc(Oc2cc(Br)c(Br)cc2Br)c(Br)c1` [2,2',4,4',5-pentabromodiphenyl ether], the “Henry solubility constant Hcp” value is 0.62 and 0.33. Take `Clc1ccc(-c2ccc(Cl)c(Cl)c2)cc1Cl` [3,3',4,4'-tetrachlorobiphenyl]: the “Henry solubility constant Hcp” value is 0.031 and 0.018. As to `Brc1ccc(Oc2ccc(Br)cc2Br)cc1` [2,4,4'-tribromodiphenyl ether], the “Henry solubility constant Hcp” value was 0.11 and 0.077. The value for `Clc1ccc(-c2cc(Cl)c(Cl)cc2Cl)cc1Cl` [2,3',4,4',5-pentachlorobiphenyl] was 0.011 and 0.0056.

Consider `Clc1ccc(-c2ccccc2Cl)cc1` [2,4'-dichlorobiphenyl], for which the “Henry solubility constant Hcp” value is 0.026 and 0.019. The value for `Clc1ccc(-c2ccc(Cl)cc2)cc1` [4,4'-dichlorobiphenyl] was 0.05 and 0.033. In the case of `Brc1ccc(Oc2ccc(Br)cc2)cc1` [4,4'-dibromodiphenyl ether] it was 0.083 and 0.071; in that of `Brc1ccc(Oc2cc(Br)c(Br)c(Br)c2Br)cc1` [2,3,4,4',5-pentabromodiphenyl ether], 0.62 and 0.77. The value for `Brc1ccc(Oc2c(Br)cc(Br)cc2Br)c(Br)c1` [2,2',4,4',6-pentabromodiphenyl ether] was 0.33 and 0.32; that for `Clc1ccccc1-c1ccccc1` [2-chlorobiphenyl] was 0.03 and 0.023; that for `Brc1ccc(Oc2ccc(Br)cc2Br)c(Br)c1` [2,2',4,4'-tetrabromodiphenyl ether] was 0.16 and 0.17.

Values taken from Sander's compilation of Henry's law constants (doi:10.1021/je050308b).
